A word on the IC50: it is the concentration needed to halve the response being measured. In general, CC50 refers to the concentration giving 50% cytotoxicity. Read a high CC50 as lower toxicity to the cells.

The source of these data is article PMC10808720 (Frontiers in Pharmacology, 2024).

Data set [1] has as its system HAdV5-GFP. The data set is described as follows: Initial rapid screening, HAdV5-mediated GFP expression in A549 cells. The data set is classed as cell-based, human adenovirus (HAdV5). As to conditions: 50 µM, 2,000 vp/cell, 48 h. How it is done: An initial rapid screening was performed using human A549 cells (3 × 10^5 cells/well) infected with HAdV5-GFP with a multiplicity of infection (MOI) of 2,000 vp/cell in the presence of 50 μM of the candidate antiviral compounds. Briefly, a standard infection curve was generated in parallel by infecting cells in the absence of compounds using serial two-fold dilutions of virus. Cells, virus and compounds were incubated for 48 h at 37°C and 5% CO2. Infection, as measured by HAdV5-mediated GFP expression, was analyzed using a Typhoon 9410 imager (GE Healthcare Life Sciences), and quantified with ImageQuantTL (GE Healthcare Life Sciences). All reactions were done in triplicate.

The test system of data set [2] is p53/MDM2 complex. The data set is classed as cell-based, Human. The settings on record: HAdV5-infected A549 cells; 10-fold IC50; 24 h. As for the experimental part:
A549 cells were seeded at a density of 1.5 × 10^5 cells per well in a 24-well plate at a high density and 3.75 × 10^4 cells per well at a low density. […] The culture medium was then aspirated and washed with 1X with cold PBS. Later, 200 μL RIPA Lysis Buffer (1% v/v NP-40, 20 mM Tris-HCL pH 7.4, 5 mM Sodium Pyrophosphate, 5 mM EDTA) with freshly added proteinase inhibitor cocktail (Thermo Fisher Scientific) was added to each well and swirled to distribute it evenly. Cells were then scraped and collected to incubate them for 30 min on ice and finally centrifuged at 13,000 × g for 5 min at 4°C. […] This assay was performed in triplicate.

Data set [3] relates to HAdV5-GFP. The data set is described as follows: microbe, parasite or virus in culture. It counts as cell-based, human adenovirus (HAdV5). The settings on record: HAdV5-GFP; 293β5 cells; MOI 0.06 vp/cell; 7 days; read-out: IC50 plaque assay. How it is done:
Compounds were tested using low MOI infections (0.06 vp/cell), initially at concentrations of 10 μM and subsequently in a dose-response assay ranging from 10 μM to 2.44 nM in a plaque assay. Briefly, 293β5 cells were seeded in 6-well plates at a density of 1 × 10^6 cells per well in duplicate for each condition. When the cells reached 80%–90% confluency, they were infected with HAdV5-GFP and rocked for 2 h at 37°C. After the incubation, the inoculum was removed and the cells were washed once with PBS. Cells were then carefully overlaid with equal parts of 4 mL/well 1.6% ([…]) Difco Agar Noble (Becton, Dickinson & Co., Sparks, MD, USA) and 2× Eagle’s Minimum Essential Medium (EMEM; BioWhittaker) supplemented with 2×penicillin/streptomycin, 2× L-glutamine, and 10% FBS. The mixture also contained the compounds in the concentration ranges described above. Following incubation for 7 days at 37°C, plates were scanned with a Typhoon FLA 9000 imager (GE Healthcare Life Sciences) and the formed plaques were quantified with ImageJ ([Schneider et al., 2012]). Plaque counting was performed to calculate the 50% inhibitory concentration (IC50) of each compound using the statistical software GraphPad Prism 6.

In data set [4] the test system is wild-type HAdV5. Put plainly: Nuclear-associated HAdV genomes (qPCR after nuclear isolation). The settings on record: 10-fold IC50; 45 min after synchronized infection; A549. The data set is classed as cell-based, human adenovirus (HAdV5). How it is done: Nuclear delivery of HAdV genomes was assessed using qPCR following nuclear isolation from infected cells. Briefly, 1 × 10^6 A549 cells in 6-well plates were infected either with wild-type HAdV5 at an MOI of 2,000 vp/cell in the presence of a 10-fold IC50 concentration of the compounds obtained in the plaque assay or the same volume of DMSO as the positive control. Forty-five minutes after infection, the A549 cells were trypsinized, collected, and washed twice with PBS. The cell pellet was resuspended in 500 μL of 1×hypotonic buffer (20 mM Tris-HCl pH 7.4, 10 mM NaCl, 3 mM MgCl2) and incubated for 15 min at 4°C. Then, 25 μL of NP-40 was added and the samples were vortexed. The homogenates were centrifuged for 10 min at 835 g at 4°C. Following the removal of the cytoplasmic fraction (supernatant), HAdV DNA was isolated from the nuclear (pellet) and cytoplasmic fractions using the E.Z.N.A.® Tissue DNA Kit (Omega Bio-tek, Norcross, GA).
A general note: Quantitative PCR measures a nucleic acid by following its amplification.

The test system of data set [5] is A549 cells. Put plainly: Cytotoxicity assay (AlamarBlue). It counts as cell-based, Human. As to conditions: 48 h. As for the experimental part: The cytotoxicity of the molecules was analyzed using the commercial kit AlamarBlue® (Invitrogen, Ref. DAL1025) according to the manufacturer’s instructions. Briefly, A549 cells were seeded at a density of 5 × 10^3 cells per well in 96-well plates, and decreasing serial dilutions of each molecule were diluted in 100 μL of DMEM starting at 200 μM. The cells were then incubated at 37°C for 48 h following the manufacturer’s protocol. The cytotoxic concentration 50% (CC50) value was obtained using the statistical software GraphPad Prism 6. The assay was performed in duplicate.
On the technique in general: The colour change of resazurin is a common sign of viable cells or microbes.

Data set [6] has as its system HCMV. Put plainly: Impact on HCMV replication (qPCR of HCMV DNA in HFF). The data set is classed as cell-based, human cytomegalovirus. The settings on record: 2-fold IC50 (HAdV plaque assay), 72 h. As for the experimental part: To test the anti-HCMV activity of these rotenolone-related compounds, human foreskin fibroblasts (HFF; ATCC, Manassas, VA) were seeded in a 24-well plate (8.3 × 10^4 cells/well), infected with HCMV (MOI 0.05 vp/cell), and incubated in complete DMEM in the presence of either 2-fold IC50 concentration of each compound obtained in the plaque assay against HAdV or the same volume of DMSO (positive control) in duplicate. The cells were incubated for 72 h at 37°C and 5% CO2 and HCMV DNA was purified from the cell lysate using E.Z.N.A Tissue DNA Kit (Omega Biotek, Norcross, GA, USA) following the manufacturer’s instructions. The qPCR primers, conditions, and protocols were the same as previously reported ([Mazzotta et al., 2020b]).

For data set [7], the system named is HAdV5. Put plainly: HAdV-mediated endosome disruption (α-sarcin co-delivery, HPG incorporation). The data set is classed as cell-based, human adenovirus (HAdV5). As for the experimental part: A549 cells (2 × 10^4 cells/well) were incubated in DMEM without cysteine or methionine supplemented with 10% dialyzed FBS [DMEM(−)] in black 96-well plates for 1 h prior to infection. Three-fold serial dilutions (0.45 ng–1,000 ng) of HAdV5, or AdV2ts1 were preincubated with cells in the presence of 10-fold IC50 concentration of the compounds obtained in the plaque assay or the same volume of DMSO for positive control for 1 h. The medium was then removed and replaced with 50 μL DMEM(−) containing 0.1 mg/ml α-sarcin (Santa Cruz Biotechnology, Dallas, Texas, USA) and drug mixtures. After 1 h at 37°C, the Click-iT L-homopropargylglycine (HPG) Alexa Fluor 488 Protein Synthesis Assay Kits (Invitrogen) was used to analyse protein synthesis according to the manufacturer’s instructions. The incorporation of the amino acid analogue of methionine HPG containing Alexa Fluor 488 azide was measured using a Typhoon 9410 imager (GE Healthcare Life Sciences) and calculated by subtracting the background level of the control well containing HPG and α-sarcin but not the virus (100% incorporation).

Data set [8] concerns wild-type HAdV5. Put plainly: HAdV yield reduction (burst) assay, TCID50 end-point dilution. The data set is classed as cell-based, human adenovirus (HAdV5). The settings on record: 10-fold IC50 concentration; TCID50/ml compound vs. DMSO; A549 cells; 48 h; MOI 100 vp/cell. As for the experimental part: A549 cells (1.5 × 10^5 cells/well in a 24-well plate) were incubated 24 h in 500 μL of complete DMEM and they were infected with wild-type HAdV5 (MOI 100 vp/cell) when more than 90% of confluency was observed. Infected cells were incubated for 48 h at 37°C in 500 μL of either complete DMEM containing 10-fold IC50 concentration of compounds obtained in the plaque assay or the same volume of DMSO (positive control). After 48 h, the cells were harvested and subjected to three rounds of freeze/thaw. Serial dilutions of the clarified lysates were titrated against A549 cells (3 × 10^4 cells/well in a 96-well plate) and TCID50 values were calculated using an end-point dilution method ([Reed and Muench, 1938]).

p53/MDM2 complex, sequence (P04637 whole entry): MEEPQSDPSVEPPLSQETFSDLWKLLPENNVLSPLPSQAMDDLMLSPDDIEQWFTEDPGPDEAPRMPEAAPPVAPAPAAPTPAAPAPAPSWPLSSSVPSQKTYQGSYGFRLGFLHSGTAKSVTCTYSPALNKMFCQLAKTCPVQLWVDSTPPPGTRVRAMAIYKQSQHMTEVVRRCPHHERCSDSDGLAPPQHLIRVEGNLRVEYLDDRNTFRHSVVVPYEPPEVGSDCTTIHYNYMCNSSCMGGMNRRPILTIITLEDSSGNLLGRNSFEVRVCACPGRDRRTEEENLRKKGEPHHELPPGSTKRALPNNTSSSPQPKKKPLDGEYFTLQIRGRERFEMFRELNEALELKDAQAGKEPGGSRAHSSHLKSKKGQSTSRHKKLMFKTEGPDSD
p53/MDM2 complex, sequence (Q00987 whole entry, further chain): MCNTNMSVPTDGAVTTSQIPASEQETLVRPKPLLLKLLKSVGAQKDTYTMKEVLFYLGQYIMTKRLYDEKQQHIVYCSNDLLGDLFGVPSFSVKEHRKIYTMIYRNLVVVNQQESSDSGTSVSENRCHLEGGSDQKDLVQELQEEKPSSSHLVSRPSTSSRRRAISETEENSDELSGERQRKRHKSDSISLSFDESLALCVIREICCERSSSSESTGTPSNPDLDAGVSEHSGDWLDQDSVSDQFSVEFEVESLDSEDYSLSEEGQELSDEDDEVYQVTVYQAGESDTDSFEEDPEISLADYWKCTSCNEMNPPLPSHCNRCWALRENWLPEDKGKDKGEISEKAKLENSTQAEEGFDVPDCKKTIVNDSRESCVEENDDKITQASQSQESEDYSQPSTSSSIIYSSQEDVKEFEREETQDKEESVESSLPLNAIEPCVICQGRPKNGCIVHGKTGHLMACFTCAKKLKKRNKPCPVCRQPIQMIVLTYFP

For “(2R,6S,6aR,12aS)-8,9-dimethoxy-2-(prop-1-en-2-yl)-1,2,6,6a,12,12a-hexahydrochromeno[3,4-b]furo[2,3-h]chromen-6-ol [Rotenolone]”, in data set [1], the “inhibition of HAdV5-GFP transgene expression” value is 100%. In data set [2], the “concentration of p53/MDM2 complexes, high vs low cell density” value was “significant difference”. Besides, the IC50 in data set [3] came out at 0.03 µM. For the same substance, the “accessibility of HAdV genomes to the nucleus” value in data set [4] is “did not block”. Moreover, it took 17.1 ± 0.4 µM to reach half-maximal cytotoxicity in data set [5] (CC50). The “inhibition of HCMV replication” value in data set [6] is 85.2%. The HPG incorporation entry in data set [7] (compared with a control without α-sarcin, 10-fold IC50, independent of virus concentration) is “approximately 30%”. Also, in data set [7] (α-sarcin assay), the “attenuation of HAdV-mediated endosomolysis” value is “did not attenuate”. For the same substance, the “Virus Yield Fold-reduction” value in data set [8] amounted to 1.3E+04 ± 4582.5 fold.
